The target in the experiment is N-type calcium channel (α1B (Cav2.2), β3 and α2δ subunits) (Homo sapiens, UniProt Q00975). The experiment in a line: Functional Assay: Antagonism of N-Type Calcium Channel (FDSS calcium mobilization, KCl depolarization). In kind it is cell-based. The conditions noted are these: for IC50: HEK cell line, 50 mM KCl depolarization, six-point concentration-response, read-out: FDSS IC50. The method, then: A stable cell line (HEK parent) co-expressing the α1B (Cav2.2), β3 and α2δ subunits of the N-type calcium channel subunits was used. These cells were routinely grown as monolayers in low glucose-containing Dulbecco's Modified Eagle Medium supplemented with 10% FBS, 2 mM L-glutamine, 100 I.U./mL penicillin, 100 μg/mL streptomycin, 400 μg/mL G418 and 200 μg/mL Zeocin (split ratio=1:5). Cells were maintained in 5% CO2 at 37° C. Compounds of Formula (I) were prepared as 10 mM stocks in DMSO from neat compound, if available. Otherwise, the 5 or 10 mM DMSO stock solutions provided in-house were used.
Calcium mobilization responses to KCl depolarization were evaluated by measuring the intensity of calcium-mediated fluorescent signal in the presence of BD Calcium Assay Dye (BD Biosciences, Franklin Lakes, N.J., U.S.A.), utilizing a Functional Drug Screening System (FDSS) by Hamamatsu Corporation (Bridgewater, N.J. U.S.A.).
Twenty-four hr prior to assay, cells were seeded in clear-base poly-D-lysine-coated 384-well plates (BD Biosciences) at a density of 5,000 cells per well in culture medium and grown overnight in 5% CO2 at 37° C. On the day of assay, growth media were removed, and cells were loaded with BD calcium assay dye (BD Biosciences) for 35 min at 37° C. under 5% CO2 and then for 25 min at room temp. Utilizing the FDSS, cells were exposed to representative compounds of Formula (I) at varying concentrations, and intracellular calcium was measured for 5 min prior to the addition of 50 mM KCl for an additional 3 min of measurement.
Calculations and Formulas
IC50 values for representative compounds of Formula (I) were determined from six-point concentration-response experiments and represent the concentration of said compound required to inhibit 50% of the maximal response. Maximal fluorescence intensity (FI) achieved upon addition of 50 mM KCl was exported from the FDSS software and further analyzed using GraphPad Prism 3.02 (Graph Pad Software Inc., San Diego, Calif., U.S.A.). Data were normalized to the maximum average counts from quadruplicate wells for each condition in the presence of 50 mM KCl and to the minimum average counts in the presence of buffer. Theoretical curves were generated using nonlinear regression curve-fitting analysis of either sigmoidal concentration-response or sigmoidal concentration-response (variable slope), and the IC50 values with the best-fit curve determined by GraphPad Prism were reported.
(A change in cytosolic calcium serves as a functional read-out for many receptors and channels.)

Molecules are shown by their SMILES.

Sequence of N-type calcium channel (α1B (Cav2.2), β3 and α2δ subunits) (Q00975 whole entry): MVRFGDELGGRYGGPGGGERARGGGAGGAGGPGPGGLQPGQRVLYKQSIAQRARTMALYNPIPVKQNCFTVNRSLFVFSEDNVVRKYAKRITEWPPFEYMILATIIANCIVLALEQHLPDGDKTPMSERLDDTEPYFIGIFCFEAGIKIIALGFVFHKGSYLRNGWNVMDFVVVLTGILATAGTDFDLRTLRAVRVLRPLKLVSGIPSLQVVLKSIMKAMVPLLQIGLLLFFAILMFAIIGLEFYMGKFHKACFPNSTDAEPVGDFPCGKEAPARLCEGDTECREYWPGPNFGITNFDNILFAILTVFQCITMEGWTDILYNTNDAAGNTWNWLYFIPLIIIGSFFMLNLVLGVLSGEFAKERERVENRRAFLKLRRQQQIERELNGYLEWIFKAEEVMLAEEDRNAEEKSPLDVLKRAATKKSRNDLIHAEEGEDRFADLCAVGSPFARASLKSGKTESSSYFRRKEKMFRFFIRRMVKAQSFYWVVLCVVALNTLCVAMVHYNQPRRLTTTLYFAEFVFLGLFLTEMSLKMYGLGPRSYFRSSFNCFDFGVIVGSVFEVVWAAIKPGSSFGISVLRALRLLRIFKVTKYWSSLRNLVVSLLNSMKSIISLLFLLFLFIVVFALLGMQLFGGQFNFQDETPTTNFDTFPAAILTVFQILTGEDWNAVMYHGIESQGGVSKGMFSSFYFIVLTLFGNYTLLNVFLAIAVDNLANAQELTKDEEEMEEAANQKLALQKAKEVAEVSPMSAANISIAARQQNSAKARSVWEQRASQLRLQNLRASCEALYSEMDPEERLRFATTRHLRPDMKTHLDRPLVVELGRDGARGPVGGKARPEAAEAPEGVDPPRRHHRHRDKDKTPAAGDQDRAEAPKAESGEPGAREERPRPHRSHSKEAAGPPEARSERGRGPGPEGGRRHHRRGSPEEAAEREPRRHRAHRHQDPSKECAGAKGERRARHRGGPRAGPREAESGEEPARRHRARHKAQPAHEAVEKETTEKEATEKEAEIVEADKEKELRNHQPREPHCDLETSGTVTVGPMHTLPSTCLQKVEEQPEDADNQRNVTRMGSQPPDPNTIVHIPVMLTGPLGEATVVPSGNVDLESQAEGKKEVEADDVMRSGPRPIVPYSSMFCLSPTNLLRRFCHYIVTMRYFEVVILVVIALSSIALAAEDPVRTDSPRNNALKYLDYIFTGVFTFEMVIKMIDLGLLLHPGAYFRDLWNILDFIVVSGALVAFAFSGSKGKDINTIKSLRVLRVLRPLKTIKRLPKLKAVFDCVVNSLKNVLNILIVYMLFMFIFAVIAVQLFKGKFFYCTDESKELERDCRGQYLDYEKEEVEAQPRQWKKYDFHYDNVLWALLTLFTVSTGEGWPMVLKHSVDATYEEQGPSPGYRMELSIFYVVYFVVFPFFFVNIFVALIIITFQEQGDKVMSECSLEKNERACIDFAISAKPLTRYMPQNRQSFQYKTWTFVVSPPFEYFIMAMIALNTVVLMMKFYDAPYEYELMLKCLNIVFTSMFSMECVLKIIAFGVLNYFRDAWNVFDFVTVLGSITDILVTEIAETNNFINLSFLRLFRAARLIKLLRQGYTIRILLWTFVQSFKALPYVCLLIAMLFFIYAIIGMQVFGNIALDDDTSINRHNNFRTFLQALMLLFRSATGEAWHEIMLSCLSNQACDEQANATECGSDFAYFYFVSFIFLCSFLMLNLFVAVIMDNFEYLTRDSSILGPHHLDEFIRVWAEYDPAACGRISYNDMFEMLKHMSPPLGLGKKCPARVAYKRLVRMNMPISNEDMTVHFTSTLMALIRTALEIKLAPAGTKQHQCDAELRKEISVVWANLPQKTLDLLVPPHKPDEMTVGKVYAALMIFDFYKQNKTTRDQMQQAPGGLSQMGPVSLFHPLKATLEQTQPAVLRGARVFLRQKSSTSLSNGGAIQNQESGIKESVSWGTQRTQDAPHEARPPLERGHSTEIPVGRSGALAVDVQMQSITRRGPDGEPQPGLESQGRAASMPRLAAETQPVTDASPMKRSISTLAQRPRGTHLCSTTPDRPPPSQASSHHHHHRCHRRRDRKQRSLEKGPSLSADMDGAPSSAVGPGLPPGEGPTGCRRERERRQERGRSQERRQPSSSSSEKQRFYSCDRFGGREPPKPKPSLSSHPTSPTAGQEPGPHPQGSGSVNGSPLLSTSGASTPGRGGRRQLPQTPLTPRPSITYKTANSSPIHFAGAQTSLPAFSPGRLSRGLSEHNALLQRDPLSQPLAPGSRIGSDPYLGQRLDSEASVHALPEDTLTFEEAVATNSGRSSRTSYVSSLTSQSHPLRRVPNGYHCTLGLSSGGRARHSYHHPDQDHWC
Sequence of N-type calcium channel (α1B (Cav2.2), β3 and α2δ subunits) (P54284 whole entry partner): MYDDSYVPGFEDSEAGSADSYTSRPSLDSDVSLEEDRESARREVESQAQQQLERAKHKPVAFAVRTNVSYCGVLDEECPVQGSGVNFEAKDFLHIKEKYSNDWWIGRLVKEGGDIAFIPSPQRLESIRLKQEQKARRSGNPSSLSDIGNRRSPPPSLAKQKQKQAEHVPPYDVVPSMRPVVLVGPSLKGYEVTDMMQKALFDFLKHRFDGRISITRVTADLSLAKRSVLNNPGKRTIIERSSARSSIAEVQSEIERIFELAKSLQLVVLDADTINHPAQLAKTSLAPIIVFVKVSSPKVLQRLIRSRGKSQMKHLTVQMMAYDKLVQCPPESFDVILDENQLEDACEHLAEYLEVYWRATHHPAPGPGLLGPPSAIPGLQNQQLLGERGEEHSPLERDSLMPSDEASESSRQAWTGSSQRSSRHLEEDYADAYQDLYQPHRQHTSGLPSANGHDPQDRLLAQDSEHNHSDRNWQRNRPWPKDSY
Sequence of N-type calcium channel (α1B (Cav2.2), β3 and α2δ subunits) (P54289 25-946 partner limits assumed): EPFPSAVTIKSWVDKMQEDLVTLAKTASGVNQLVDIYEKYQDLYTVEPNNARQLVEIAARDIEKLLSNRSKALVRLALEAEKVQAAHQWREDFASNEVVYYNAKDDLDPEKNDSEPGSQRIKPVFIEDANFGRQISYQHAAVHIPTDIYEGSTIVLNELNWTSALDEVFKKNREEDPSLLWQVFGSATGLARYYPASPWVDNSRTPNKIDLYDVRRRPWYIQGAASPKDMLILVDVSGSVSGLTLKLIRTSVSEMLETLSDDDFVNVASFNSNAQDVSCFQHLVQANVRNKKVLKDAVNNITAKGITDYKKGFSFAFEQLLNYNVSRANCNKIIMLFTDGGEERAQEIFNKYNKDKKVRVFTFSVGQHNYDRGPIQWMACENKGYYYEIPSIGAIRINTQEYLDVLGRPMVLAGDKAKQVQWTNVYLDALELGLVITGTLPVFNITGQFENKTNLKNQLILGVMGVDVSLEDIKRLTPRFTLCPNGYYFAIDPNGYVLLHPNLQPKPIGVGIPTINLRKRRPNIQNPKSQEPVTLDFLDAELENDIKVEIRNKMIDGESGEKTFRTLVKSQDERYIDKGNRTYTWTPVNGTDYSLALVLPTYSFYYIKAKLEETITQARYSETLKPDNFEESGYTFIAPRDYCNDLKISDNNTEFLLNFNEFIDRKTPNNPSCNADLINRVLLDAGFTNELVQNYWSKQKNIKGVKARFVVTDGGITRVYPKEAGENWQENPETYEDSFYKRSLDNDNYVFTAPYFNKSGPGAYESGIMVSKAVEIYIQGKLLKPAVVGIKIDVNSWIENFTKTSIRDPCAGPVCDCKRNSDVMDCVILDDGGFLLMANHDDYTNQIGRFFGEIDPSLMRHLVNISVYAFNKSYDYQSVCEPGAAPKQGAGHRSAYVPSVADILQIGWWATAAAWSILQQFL
Sequence of N-type calcium channel (α1B (Cav2.2), β3 and α2δ subunits) (P54289 947-1103 partner limits assumed): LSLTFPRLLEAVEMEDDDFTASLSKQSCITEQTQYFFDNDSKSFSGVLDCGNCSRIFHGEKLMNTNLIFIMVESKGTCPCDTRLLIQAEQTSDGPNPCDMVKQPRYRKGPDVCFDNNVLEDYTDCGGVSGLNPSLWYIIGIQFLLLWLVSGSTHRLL

The IC50 is the midpoint of a concentration-inhibition curve. As to `CCc1ccccc1-n1nc2c(c1-c1ccc(Cl)cc1)CC(CNC(=O)C(F)(F)F)C2` (centres unmarked) [Compound 19, N-{[3-(4-chlorophenyl)-2-(2-ethylphenyl)-2,4,5,6-tetrahydrocyclopenta[c]pyrazol-5-yl]methyl}-2,2,2-trifluoroacetamide], the IC50 was determined as 130 nM.
A word on the inhibition: it is how much of the control response was suppressed. Consider `COc1ccccc1-n1nc2c(c1-c1ccc(Cl)cc1)C[C@H](Oc1ccccc1)C2` [Compound 58, (5S)-3-(4-chlorophenyl)-2-(2-methoxyphenyl)-5-phenoxy-2,4,5,6-tetrahydrocyclopenta[c]pyrazole], for which the inhibition at 0.33 µM turned out to be 65% and the IC50 was determined as 130 nM.
Regarding `CCc1ccccc1-n1nc2c(c1-c1ccc(Cl)cc1)CC(/C=N\C(=O)OC(C)(C)C)C2` (racemic) [Compound 15, tert-butyl{[3-(4-chlorophenyl)-2-(2-ethylphenyl)-2,4,5,6-tetrahydrocyclopenta[c]pyrazol-5-yl]methylidene}carbamate], the half-inhibitory concentration (IC50) is 300 nM.
In the case of `O=C(OC1Cc2nn(-c3ccccc3OC(F)(F)F)c(-c3ccc(Cl)cc3)c2C1)N1CCOCC1` (centres unmarked) [Compound 24, 3-(4-chlorophenyl)-2-[2-(trifluoromethoxy)phenyl]-2,4,5,6-tetrahydrocyclopenta[c]pyrazol-5-ylmorpholine-4-carboxylate], the IC50 was determined as 150 nM.
On to `COc1ccccc1-n1nc2c(c1-c1ccc(C#N)cc1)C[C@H](n1cc(COC(C)=O)nn1)C2` [Compound 128, {1-[(5S)-3-(4-cyanophenyl)-2-(2-methoxyphenyl)-2,4,5,6-tetrahydrocyclopenta[c]pyrazol-5-yl]-1H-1,2,3-triazol-4-yl}methyl acetate], for which the inhibition at 0.33 µM is 59% and the IC50 was 170 nM.
The like results for `COc1ccccc1-n1nc2c(c1-c1ccc(Cl)cc1)CC(c1ccc(C(C)C)nc1Cl)C2` (centres unmarked) [Compound 75, 5-[2-Chloro-6-(1-methylethyl)pyridin-3-yl]-3-(4-chlorophenyl)-2-(2-methoxyphenyl)-2,4,5,6-tetrahydrocyclopenta[c]pyrazole] were, in that order, 53% and 230 nM.
For the compound `CS(=O)(=O)NCCC1Cc2nn(-c3ccccc3C(F)(F)F)c(-c3ccc(Cl)cc3)c2C1` (centres unmarked) [Compound 21, N-(2-{3-(4-chlorophenyl)-2-[2-(trifluoromethyl)phenyl]-2,4,5,6-tetrahydrocyclopenta[c]pyrazol-5-yl}ethyl)methanesulfonamide], under “1 μM”, the inhibition at 1 µM was 65%.
Consider `CCOc1ccc(C2Cc3nn(-c4ccccc4OC)c(-c4ccc(Cl)cc4)c3C2)cn1` (centres unmarked) [Compound 74, 3-(4-chlorophenyl)-5-(6-ethoxypyridin-3-yl)-2-(2-methoxyphenyl)-2,4,5,6-tetrahydrocyclopenta[c]pyrazole], for which the inhibition at 0.33 µM was determined as 61% and the IC50 came to 150 nM.
With `CCc1nccn1[C@@H]1Cc2nn(-c3ccccc3OC)c(-c3ccc(C#N)cc3)c2C1` [Compound 134, 4-[(5S)-5-(2-ethyl-1H-imidazol-1-yl)-2-(2-methoxyphenyl)-2,4,5,6-tetrahydrocyclopenta[c]pyrazol-3-yl]benzonitrile], the inhibition at 0.33 µM was determined as 50% and the IC50 was found to be 200 nM.
Regarding `COc1ccccc1-n1nc2c(c1-c1ccc(C#N)cc1)C[C@H](n1cnc(C)c1C)C2` [Compound 131, 4-[(5S)-5-(4,5-dimethyl-1H-imidazol-1-yl)-2-(2-methoxyphenyl)-2,4,5,6-tetrahydrocyclopenta[c]pyrazol-3-yl]benzonitrile], the inhibition at 0.33 µM was found to be 67% and the IC50 stood at 105 nM.
Turning to `CCc1ccccc1-n1nc2c(c1-c1ccc(Cl)cc1)CC(CNS(C)(=O)=O)C2` (centres unmarked) [Compound 18, N-{[3-(4-chlorophenyl)-2-(2-ethylphenyl)-2,4,5,6-tetrahydrocyclopenta[c]pyrazol-5-yl]methyl}methanesulfonamide], the concentration for half-maximal inhibition (IC50) was found to be 200 nM.
`COc1ccccc1-n1nc2c(c1-c1ccc(Cl)cc1)C[C@@H](Oc1ccccn1)C2` [Compound 61, (5R)-3-(4-chlorophenyl)-2-(2-methoxyphenyl)-5-(pyridin-2-yloxy)-2,4,5,6-tetrahydrocyclopenta[c]pyrazole]: the inhibition at 0.33 µM is 77% and the IC50 came to 98 nM.
On to `COc1ccccc1-n1nc2c(c1-c1ccc(C#N)cc1)C[C@H](n1cc(C(C)(C)O)nn1)C2` [Compound 126, 4-[(5S)-5-[4-(1-hydroxy-1-methylethyl)-1H-1,2,3-triazol-1-yl]-2-(2-methoxyphenyl)-2,4,5,6-tetrahydrocyclopenta[c]pyrazol-3-yl]benzonitrile], for which the inhibition at 0.33 µM was determined as 33%.
Consider `COc1ccccc1-n1nc2c(c1-c1ccc(Cl)cc1)CC(c1ccc(N3CCOCC3)nc1)C2` (centres unmarked) [Compound 62, 3-(4-chlorophenyl)-2-(2-methoxyphenyl)-5-(6-morpholin-4-ylpyridin-3-yl)-2,4,5,6-tetrahydrocyclopenta[c]pyrazole], for which the inhibition at 0.33 µM amounted to 42%.
As for `COc1ccccc1-n1nc2c(c1-c1ccc(C#N)cc1)C[C@H](n1ccnc1C)C2` [Compound 135, 4-[(5S)-2-(2-methoxyphenyl)-5-(2-methyl-1H-imidazol-1-yl)-2,4,5,6-tetrahydrocyclopenta[c]pyrazol-3-yl]benzonitrile], the inhibition at 0.33 µM amounted to 44%.
On to `COc1ccccc1-n1nc2c(c1-c1ccc(Cl)cc1)CC(C(N)=O)C2` (centres unmarked) [Compound 6, 3-(4-chlorophenyl)-2-(2-methoxyphenyl)-2,4,5,6-tetrahydrocyclopenta[c]pyrazole-5-carboxamide], for which the inhibition at 0.33 µM amounted to 75% and the IC50 came out at 490 nM.
In the case of `COc1ccccc1-n1nc2c(c1-c1ccc(Cl)cc1)CC(C#N)C2` (centres unmarked) [Compound 10, 3-(4-chlorophenyl)-2-(2-methoxyphenyl)-2,4,5,6-tetrahydrocyclopenta[c]pyrazole-5-carbonitrile], the inhibition at 0.33 µM was determined as 83% and the concentration for half-maximal inhibition (IC50) was found to be 300 nM.
On to `COc1ccccc1-n1nc2c(c1-c1ccc(Cl)cc1)C[C@H](Oc1cccnc1)C2` [Compound 59, (5S)-3-(4-chlorophenyl)-2-(2-methoxyphenyl)-5-(pyridin-3-yloxy)-2,4,5,6-tetrahydrocyclopenta[c]pyrazole], for which the inhibition at 0.33 µM stood at 76% and the IC50 turned out to be 94 nM.
Regarding `CCc1nc(C)c(C)n1[C@@H]1Cc2nn(-c3ccccc3OC)c(-c3ccc(C#N)cc3)c2C1` [Compound 133, 4-[(5S)-5-(2-ethyl-4,5-dimethyl-1H-imidazol-1-yl)-2-(2-methoxyphenyl)-2,4,5,6-tetrahydrocyclopenta[c]pyrazol-3-yl]benzonitrile], the inhibition at 0.33 µM was found to be 35%.
Turning to `CC(C)(C)OC(=O)NCCC1Cc2nn(-c3ccccc3C(F)(F)F)c(-c3ccc(Cl)cc3)c2C1` (centres unmarked) [Compound 20, tert-butyl(2-{3-(4-chlorophenyl)-2-[2-(trifluoromethyl)phenyl]-2,4,5,6-tetrahydrocyclopenta[c]pyrazol-5-yl}ethyl)carbamate], the half-inhibitory concentration (IC50) is 260 nM.
On to `COc1ccccc1-n1nc2c(c1-c1ccc(Cl)cc1)CC(c1ccc(C3CC3)nc1)C2` (centres unmarked) [Compound 77, 3-(4-chlorophenyl)-5-(6-cyclopropylpyridin-3-yl)-2-(2-methoxyphenyl)-2,4,5,6-tetrahydrocyclopenta[c]pyrazole], for which the inhibition at 0.33 µM came to 81% and the IC50 worked out at 62 nM.
For `COc1ccccc1-n1nc2c(c1-c1ccc(Cl)cc1)C[C@H](OC(=O)C1CCOCC1)C2` [Compound 86, (5S)-3-(4-chlorophenyl)-2-(2-methoxyphenyl)-2,4,5,6-tetrahydrocyclopenta[c]pyrazol-5-yl tetrahydro-2H-pyran-4-carboxylate], the inhibition at 0.33 µM was 82% and the concentration for half-maximal inhibition (IC50) was 82 nM.
For the compound `CCOc1ccccc1-n1nc2c(c1-c1ccc(Cl)cc1)CC(N1CCCC1=O)C2` (centres unmarked) [Compound 40, 1-[3-(4-chlorophenyl)-2-(2-ethoxyphenyl)-2,4,5,6-tetrahydrocyclopenta[c]pyrazol-5-yl]pyrrolidin-2-one], the concentration for half-maximal inhibition (IC50) amounted to 19 nM.
For the compound `CCOC(=O)C1Cc2nn(-c3ccccc3CC)c(-c3ccc(Cl)cc3)c2C1` (centres unmarked) [Compound 14, ethyl 3-(4-chlorophenyl)-2-(2-ethylphenyl)-2,4,5,6-tetrahydrocyclopenta[c]pyrazole-5-carboxylate], the IC50 came out at 90 nM.
Turning to `COc1ccccc1-n1nc2c(c1-c1ccc(Cl)cc1)CC(C1CCC(C)(C)CC1)C2` (centres unmarked) [Compound 64, 3-(4-chlorophenyl)-5-(4,4-dimethylcyclohexyl)-2-(2-methoxyphenyl)-2,4,5,6-tetrahydrocyclopenta[c]pyrazole], the inhibition at 0.33 µM was determined as 66% and the IC50 was determined as 280 nM.

(Values after patent US8853418B2, “Cyclopentylpyrazoles as N-type calcium channel blockers” (Janssen Pharmaceutica NV, priority 2012, dated 2014).)
